Source: PubChem BioAssay AID1338 (Columbia University Molecular Screening Center, 2008)
Activity calls are given as the source filed them.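 The calls were made as follows: active = normalized inhibition above 25%; inactive = normalized inhibition below 25%.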

Target: Tyrosine-protein phosphatase non-receptor type 22 (Homo sapiens) (UniProt Q9Y2R2)
Assay: LYP phosphatase inhibitors with catalase present, biochemical, catalase added, Infinite200, 384-well (AID 1338)
Conditions: Recombinant LYP, DiFMUP fluorescence, at 10 µM, hits give high values

Chain of Tyrosine-protein phosphatase non-receptor type 22 (Homo sapiens) (Q9Y2R2 whole entry, looked up): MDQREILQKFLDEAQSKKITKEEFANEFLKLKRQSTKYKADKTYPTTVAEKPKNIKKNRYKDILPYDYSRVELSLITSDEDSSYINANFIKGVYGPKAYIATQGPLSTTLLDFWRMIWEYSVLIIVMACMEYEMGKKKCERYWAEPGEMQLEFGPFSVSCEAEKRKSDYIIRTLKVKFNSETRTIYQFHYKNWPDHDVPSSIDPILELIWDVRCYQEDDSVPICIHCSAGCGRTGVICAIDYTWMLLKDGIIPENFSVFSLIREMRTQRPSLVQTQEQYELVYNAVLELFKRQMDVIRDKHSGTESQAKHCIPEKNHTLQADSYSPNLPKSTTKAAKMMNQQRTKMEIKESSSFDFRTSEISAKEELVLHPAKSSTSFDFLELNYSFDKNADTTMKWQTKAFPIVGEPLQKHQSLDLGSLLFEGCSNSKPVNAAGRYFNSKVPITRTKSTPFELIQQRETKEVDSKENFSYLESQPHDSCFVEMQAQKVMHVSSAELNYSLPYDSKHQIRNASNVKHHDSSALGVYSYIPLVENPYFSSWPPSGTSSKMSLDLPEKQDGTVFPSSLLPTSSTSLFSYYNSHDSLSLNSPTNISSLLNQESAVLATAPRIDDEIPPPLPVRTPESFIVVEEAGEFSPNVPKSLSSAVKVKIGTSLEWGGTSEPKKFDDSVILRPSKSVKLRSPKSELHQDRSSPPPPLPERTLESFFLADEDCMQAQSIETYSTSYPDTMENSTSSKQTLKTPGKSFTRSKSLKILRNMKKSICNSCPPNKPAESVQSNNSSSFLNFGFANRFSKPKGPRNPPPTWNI

inhibition	Structure (SMILES)
48.2%	Cc1ccc(NC(=O)CN2C(=O)S/C(=C\c3cccn3-c3cccc(C(=O)O)c3)C2=O)c(C)c1
49%	COc1cc(-c2nnc(SCc3cc(=O)oc4cc(O)c(O)cc34)o2)cc(OC)c1OC
34.1%	Cn1nc(-c2ccc(Cl)cc2)nc2c(=O)n(C)c(=O)nc1-2
13% (inactive)	CC(C)C(C(=O)O)N1C(=O)/C(=C/C=C/c2ccco2)SC1=S (stereo unspecified)
32.2%	Nc1c(C(=O)Nc2nc3ccccc3s2)sc2nc(-c3cccs3)ccc12

Second part, the compound before the results:

Structure (SMILES)	inhibition
O=C(c1cccs1)c1no[n+]([O-])c1C(=O)c1cccs1	51.5%
CC(C(=O)O)N1C(=O)/C(=C/C=C/c2ccco2)SC1=S (stereo unspecified)	2.7% (inactive)
COc1cccc(OC)c1-c1nn2c(-c3cc(-c4ccccc4)n[nH]3)nnc2s1	54.4%
O=[N+]([O-])c1cc(/C=N\Nc2nccs2)ccc1O	4% (inactive)
O=C(O)CCCN1C(=O)/C(=C/c2ccc(-c3nc4ccccc4s3)o2)SC1=S	36.5%
O=C(O)CCN1C(=O)/C(=C/c2ccc(-c3nc4ccccc4s3)o2)SC1=S	48.9%
